Article PMC12472391, “Borylated Five-Membered Ring Iminosugars: Synthesis, Spectroscopic Analysis, and Biological Evaluation for Glycosidase Inhibition and Anticancer Properties for Application in Boron Neutron Capture Therapy (BNCT)—Part 1” (Pharmaceuticals, 2025)

Assays:
β-D-glucosidase (almond) = test: Glycosidase inhibition, Table 7; type: biochemical; conditions: 1 mg/mL aqueous solution added, 27 °C, run in water
Protocol: (§1) All enzymes and para-nitrophenyl substrates were purchased from Sigma. Enzymes were assayed at 27 °C in citric acid (0.1M)/disodium hydrogen phosphate (0.2 M) buffers at the optimum pH for the enzyme. The incubation mixture consisted of […] enzyme solution, […] of 1 mg/mL aqueous solution of extract, and […] of the appropriate 5 mM para-nitrophenyl substrate made up in buffer at the optimum pH for the enzyme. The reactions were stopped by the addition of […] 0.4 M glycine (pH 10.4) during the exponential phase of the reaction, which had been determined at the beginning using uninhibited assays in which water replaced the inhibitor. Final absorbances were read at 405 nm using a Versamax microplate reader (Molecular Devices). Assays were carried out in triplicate, and the values given are the means of the three replicates per assay. All reactions run in water.

α-D-glucosidase (yeast) = biological target: T1, α-D-glucosidase (yeast) (Saccharomyces cerevisiae, UniProt P53341); test: Glycosidase inhibition, Table 7; type: biochemical; conditions: 1 mg/mL aqueous solution added, 27 °C, run in water
T1 construct: purchased Sigma
Protocol: as §1

[1] = system: β-D-glucuronidase (bovine liver); test: Glycosidase inhibition, Table 7; type: biochemical; conditions: 1 mg/mL aqueous solution added, 27 °C, run in water
Protocol: as §1

[2] = system: MCF-7 breast carcinoma cells; test: Cancer screening, MTT growth inhibition; type: cell-based; conditions: 72-h exposure
Protocol: (§2) Two assays were run: the dose screen to ascertain cell growth inhibition in response to 25 µM of drug (on a blue background) and the dose response (GI50) (on a green background). For a discussion of BNCT as a radiotherapeutic modality, a rationalisation is provided here.
(§3) All test agents were prepared as stock solutions (20 mM) in dimethyl sulfoxide (DMSO) and stored at −20 °C. Cell lines used in the study included HT29, (colorectal carcinoma); U87, SJ-G2, (glioblastoma); MCF-7, (breast carcinoma); A2780 (ovarian carcinoma); H460 (lung carcinoma); A431 (skin carcinoma); Du145 (prostate carcinoma); BE2-C (neuroblastoma) and MiaPaCa-2 (pancreatic carcinoma); together with the one non-tumour derived normal breast cell line (MCF10A). All cell lines were incubated in a humidified atmosphere 5% CO2 at 37 °C. The cancer cell lines were maintained in Dulbecco’s modified Eagle’s medium (DMEM; Sigma, Australia) supplemented with foetal bovine serum (10%), sodium pyruvate (10 mM), penicillin (100 IUmL^−1), streptomycin (100 µg mL^−1), and L-glutamine (2 mM).
(§4) Growth inhibition was determined by plating cells in duplicate in medium (100 µL) at a density of 2500–4000 cells per well in 96-well plates. On day 0 (24 h after plating), when the cells are in logarithmic growth, medium (100 µL) with or without the test agent was added to each well. After a 72-h drug exposure, growth inhibitory effects were evaluated using the MTT (3-(4,5-dimethyltiazol-2-yl)-2,5-diphenyltetrazolium bromide) assay and absorbance read at 540 nm. The percentage growth inhibition was calculated at a fixed concentration of 25 µM, based on the difference between the optical density values on day 0 and those at the end of drug exposure. Each data point is the mean ± the standard error of the mean (SEM) calculated from three replicates, which were performed on separate occasions and separate cell line passages.

U87 glioblastoma cells = test: Cancer screening, MTT growth inhibition; type: cell-based; conditions: 72-h exposure
Protocol: as §2, §3, §4

[3] = system: HT29 colon carcinoma cells; test: Cancer screening, MTT growth inhibition; type: cell-based; conditions: 25 µM, 72-h exposure
Protocol: as §2, §3, §4

[4] = system: A431 skin carcinoma cells; test: Cancer screening, MTT growth inhibition; type: cell-based; conditions: 25 µM, 72-h exposure
Protocol: as §2, §3, §4

[5] = system: H460 lung carcinoma cells; test: Cancer screening, MTT growth inhibition; type: cell-based; conditions: 25 µM, 72-h exposure
Protocol: as §2, §3, §4

[6] = system: BE2-C neuroblastoma cells; test: Cancer screening, MTT growth inhibition; type: cell-based; conditions: 72-h exposure
Protocol: as §2, §3, §4

SJ-G2 glioblastoma cells = test: Cancer screening, MTT growth inhibition; type: cell-based; conditions: 72-h exposure
Protocol: as §2, §3, §4

[7] = system: Du145 prostate carcinoma cells; test: Cancer screening, MTT growth inhibition; type: cell-based; conditions: 72-h exposure
Protocol: as §2, §3, §4

[8] = system: A2780 ovarian carcinoma cells; test: Cancer screening, MTT growth inhibition; type: cell-based; conditions: 25 µM, 72-h exposure
Protocol: as §2, §3, §4

[9] = system: MIA-Pa-Ca2 pancreatic carcinoma cells; test: Cancer screening, MTT growth inhibition; type: cell-based; conditions: 25 µM, 72-h exposure
Protocol: as §2, §3, §4

T1 sequence (P53341 whole entry): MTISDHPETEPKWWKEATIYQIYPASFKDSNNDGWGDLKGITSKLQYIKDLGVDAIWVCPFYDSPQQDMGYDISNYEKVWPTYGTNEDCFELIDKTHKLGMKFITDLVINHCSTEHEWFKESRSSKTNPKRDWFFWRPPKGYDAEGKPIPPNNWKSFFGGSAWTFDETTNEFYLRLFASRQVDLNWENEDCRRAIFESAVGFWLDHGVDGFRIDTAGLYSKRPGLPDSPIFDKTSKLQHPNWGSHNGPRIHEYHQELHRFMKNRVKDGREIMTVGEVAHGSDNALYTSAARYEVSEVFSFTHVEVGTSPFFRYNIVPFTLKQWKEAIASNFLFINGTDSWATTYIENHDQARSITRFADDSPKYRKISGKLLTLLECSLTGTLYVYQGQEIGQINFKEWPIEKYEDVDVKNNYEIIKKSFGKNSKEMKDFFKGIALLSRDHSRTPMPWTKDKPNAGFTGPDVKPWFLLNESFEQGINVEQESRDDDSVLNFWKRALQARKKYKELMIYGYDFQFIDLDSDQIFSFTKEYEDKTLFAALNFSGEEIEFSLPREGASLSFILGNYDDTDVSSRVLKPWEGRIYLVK

For “borocaptate sodium [BSH, reference compound]”, the “β-D-Glucosidase Almond, percentage inhibition” value (β-D-glucosidase (almond)) was 47.3%, the “α-D-Glucosidase Yeast, percentage inhibition” value (α-D-glucosidase (yeast)) was 59% and the “β-D-Glucuronidase Bovine Liver, percentage inhibition” value [1] was 31.6%. The “MCF-7 Breast Carcinoma, Percentage (%) Cell Growth Inhibition in response to 25 µM of Drug” value [2] was “* 15 ± 3%”, the “U87 Glioblastoma, Percentage (%) Cell Growth Inhibition in response to 25 µM of Drug” value (U87 glioblastoma cells) was “* <0%” and the “HT29 Colon Carcinoma, Percentage (%) Cell Growth Inhibition in response to 25 µM of Drug” value [3] was “* 3 ± 2%”. For the same substance, the “A431 Skin Carcinoma, Percentage (%) Cell Growth Inhibition in response to 25 µM of Drug” value [4] was “* <0%”, the “H460 Lung Carcinoma, Percentage (%) Cell Growth Inhibition in response to 25 µM of Drug” value [5] was “* 8 ± 2%” and the “BE2-C Neuroblastoma, Percentage (%) Cell Growth Inhibition in response to 25 µM of Drug” value [6] was “* 10 ± 6%”. For the same substance, the “SJ-G2 Glioblastoma, Percentage (%) Cell Growth Inhibition in response to 25 µM of Drug” value (SJ-G2 glioblastoma cells) was “* 3 ± 8%”, the “Du145 Prostate Carcinoma, Percentage (%) Cell Growth Inhibition in response to 25 µM of Drug” value [7] was “* 0 ± 8%” and the “A2780 Ovarian Carcinoma, Percentage (%) Cell Growth Inhibition in response to 25 µM of Drug” value [8] was “* 2 ± 5%”. For the same substance, the “MIA-Pa-Ca2 Pancreatic Carcinoma, Percentage (%) Cell Growth Inhibition in response to 25 µM of Drug” value [9] was “* 2 ± 6%”.
